“Also recorded” adds a separate entry of the source.
How the values were obtained:
Assay type in all cases: in vivo, Drosophila melanogaster
[1] = tested on: Drosophila larval muscle 6 resting membrane potential; assay: intracellular recording of resting membrane potential (RMP) during acute oxidative stress; settings: 1 nM with 2.25 mM H2O2 versus H2O2 alone
Description: FIGS. 8A and 8B are a pair of graphs showing that during acute oxidative stress, Drosophila larval muscle resting membrane potential (RMP) and EJP amplitude decline. […] 8B) EJP amplitude was recorded in the same larval preparations (n=5 per group). […] Data is presented as mean±SEM.
To ensure that the results obtained using compound 1 and resveratrol were not due to changes in the EJP, additional control experiments were performed, as previously described (Caplan et al. J. Neurophys. 109, 649-658). […] It was also observed that resting membrane potential (RMP) and EJP amplitude decline in larvae treated with H2O2 alone and H2O2 with 1 nM compound 1 (see FIGS. 8A. 8B).
All electrophysiological experiments were performed as previously described with the exception of the resistance of the intracellular electrodes (60-90 MΩ) (Caplan et al. J. Neurophys. 109, 649-658). Excitatory junction potentials (EJPs) were elicited via repetitive stimulation (0.3 ms pulses delivered suprathreshold at a frequency of 1 Hz) and measured until synaptic failure occurred, which was characterized by an EJP amplitude of <1 mV being recorded. Electrophysiological recordings from larval preparations were conducted in hemolymph-like 3 (HL3) saline containing 2.25 mM H2O2. […] HL3 saline containing 1.5 mM Ca^2+ and 20 mM Mg^2+ was used as the recording saline throughout this study. […]

[2] = tested on: Drosophila larval neuromuscular junction synaptic transmission; assay: neuromuscular junction (NMJ) postsynaptic transmission assay: time to synaptic failure under acute oxidative stress (2.25 mM H2O2); settings: for EC50: Drosophila melanogaster, read-out: EC50 (half-maximal effective concentration) in protecting neurotransmission from H2O2 exposure, 2.25 mM H2O2 in HL3 saline, w1118 third instar larvae, from % maximal response of time to synaptic failure
From the text: Small molecule-mediated neuroprotection is an area of research that has important implications for several maladies such as migraine, Alzheimer's disease, and stroke. One promising method to measure the neuroprotective effects of various medicinal compounds against oxidative stress in D. melanogaster has been developed (Caplan et al. Journal of Neurophysiology, 2013, 109, 3, 649-658). In this phenotypic model, fly larvae have their synaptic transmission measured via electrical probes in the post-synaptic neuromuscular junction (NMJ). The time until synaptic failure is first measured to obtain a control. An oxidizing solution (2.25 mM of hydrogen peroxide) is then introduced to the tissue and the time to synaptic failure is again measured. Hydrogen peroxide greatly reduces the time to synaptic failure relative to the control by damaging neurons through oxidative stress. Once the time to synaptic failure has been established with hydrogen peroxide alone, then different compounds can be introduced at varying concentrations along with the hydrogen peroxide solution, and their effects on the time to synaptic failure are measured and compared to the two controls.
A series of compounds generated using the methods described herein were subjected to a neuromuscular junction (NMJ) postsynaptic transmission assay. Resveratrol was included as a neuroprotectant control. When a wash of hydrogen peroxide (2.25 mM) was introduced, the time to synaptic failure was shortened from approximately 150 min to approximately 40 min (FIG. 2). Introducing resveratrol at 25 nM restored the time to synaptic failure to approximately 150 min upon addition of hydrogen peroxide (2.25 mM).
To quantify tolerance of neurotransmission to acute oxidative stress, electrophysiological recordings from Drosophila larval preparations were conducted in a hemolymph-like 3 (HL3) saline containing 2.25 mM hydrogen peroxide (H2O2).
Wandering third instar larvae (≈110 hours old) from the fruit fly, Drosophila melanogaster, were utilized for all electrophysiological experiments described throughout this study. Larvae were reared at 25° C. on 12 h:12 h light-dark (LD) cycles in an incubator. Only w^1118 larvae were utilized in this study.
All electrophysiological experiments were performed as previously described with the exception of the resistance of the intracellular electrodes (60-90 MΩ) (Caplan et al. J. Neurophys. 109, 649-658). Excitatory junction potentials (EJPs) were elicited via repetitive stimulation (0.3 ms pulses delivered suprathreshold at a frequency of 1 Hz) and measured until synaptic failure occurred, which was characterized by an EJP amplitude of <1 mV being recorded. Electrophysiological recordings from larval preparations were conducted in hemolymph-like 3 (HL3) saline containing 2.25 mM H2O2. […] HL3 saline containing 1.5 mM Ca^2+ and 20 mM Mg^2+ was used as the recording saline throughout this study. HL3 has been utilized by other research groups to record EJPs.^20 Intracellular recordings of resting membrane potential were taken from Drosophila larval muscle 6.
All test compounds and H2O2 were applied to the Drosophila larval NMJ preparation as previously described by Caplan et al. (supra). However, the compounds utilized in the Caplan et al. work were dissolved in dimethyl sulfoxide (DMSO), whereas the compounds utilized in the present study are water-soluble at the concentrations used and thus were dissolved in ddH2O.
The statistics utilized in the vertical bar charts and line graphs were performed as previously described with the exception of the error bars being presented as mean±SEM instead of mean±SD. The EC50, or half maximal effective concentration, of each test compound was determined by plotting the logio(compound dose) against the corresponding average percentage of the maximal effectiveness, as previously described (Caplan et al. J. Neurophys. 109, 649-658).

[3] = tested on: excitatory junction potential (EJP) at the Drosophila NMJ; assay: control recordings of excitatory junction potential (EJP) shape and amplitude; settings: 1 nM, in the presence and absence of 2.25 mM H2O2, ten minutes after bath switch
From the text: In all panels, the curved black line represents the average EJP in hemolymph-like saline (HL3) one minute before the recording bath was replaced with HL3 containing the drug alone or the drug and H2O2. The curved gray line represents the average EJP from the same larvae ten minutes after the bath was switched from HL3 saline to HL3 containing either the drug alone or the drug and H2O2.

COc1cc(OC)cc(C2CC3C(OC(C)=O)C(C)=C(C)C2(C(=O)O)C3OC(C)=O)c1 (racemic) [compound 1, 7-(3,5-dimethoxyphenyl)-4,8-diacetoxy-2,3-dimethylbicyclo[3.2.1]oct-2-ene-1-carboxylic acid]
decline of resting membrane potential (RMP) [1]: significantly slowed the decline of RMP
time until synaptic failure restored ([2]; 0.5 nM, in the presence of hydrogen peroxide): 80%
normal synaptic function maintained ([2]; 25 nM, H2O2 2.25 mM, wild-type fruit fly larvae): 100%
time to synaptic failure compared to control and resveratrol-treated preparations ([2]; 0.5-5 nM dosage range, 2.25 mM H2O2, P<0.001): significantly increased time to synaptic failure
EC50 [2]: ~0.21 nM
neuroprotection in screening of initial compounds ([2]; H2O2 2.25 mM, wild-type fruit fly larvae): potent neuroprotectants
neuroprotective effect compared to resveratrol across dosages ([2]; almost all dosages tested (0.5 nM to 25 nM)): stronger neuroprotective effects
protection of synaptic transmission from acute oxidative stress ([2]; at a subnanomolar level): protect synaptic transmission from acute oxidative stress
dose dependence of neuroprotective effect ([2]; dose-response, 2.25 mM H2O2): dose-dependent manner
neuroprotective effect at lowest dose ([2]; doses as low as 500 pM, H2O2 exposure): strong neuroprotective effects
ion channel stabilization ([2]; general statement ('appear to have'), no separate test described): ion channel stabilization effects
toxicity ([2]; general statement, no separate test described): non-toxic
time until synaptic failure compared to control larvae treated with 2.25 mM H2O2 only ([2]; low doses (0.5 nM and 1 nM)): significantly increased the amount of time until synaptic failure
neuroprotective effect compared to resveratrol ([2]; similar dosage of resveratrol, P<0.001): stronger neuroprotective effects
acute effect on the shape or amplitude of the EJP [3]: do not have a significant acute effect; also recorded: do not acutely affect

COc1cc(OC)cc(C2CC3C(O)C(C)=C(C)C2(C(=O)O)C3O)c1 (racemic) [compound 2, 7-(3,5-dimethoxyphenyl)-4,8-dihydroxy-2,3-dimethylbicyclo[3.2.1]oct-2-ene-1-carboxylic acid]
EC50 [2]: 2.99 nM
time to synaptic failure during H2O2 exposure compared to control preparations ([2]; higher doses, P<0.001): significantly increased time to synaptic failure
time to failure during H2O2 exposure ([2]; low doses (0.1 nM and 0.5 nM)): did not prolong time to failure
time to synaptic failure compared to control ([2]; only at the 5.0 nM dosage, 2.25 mM H2O2, P<0.001): similarly increased time to synaptic failure
EC50 relative to compound 1 ([2]; ratio of EC50 values): over ten-fold higher

Oc1ccc(C=Cc2cc(O)cc(O)c2)cc1 [resveratrol, reference compound]
time to synaptic failure ([2]; 25 nM with hydrogen peroxide 2.25 mM (H2O2 alone approx. 40 min, no H2O2 approx. 150 min)): approximately 150 min
neuroprotectant activity from the dose curve ([2]; at the chosen dosages, unusual dose curve, EC50 not reliably determinable): does not act as a neuroprotectant
acute effect on the shape or amplitude of the EJP [3]: do not have a significant acute effect; also recorded: do not acutely affect

Reference: patent US10759735B2, “Bridged bicyclic compounds and their derivatives as neuroprotective agents and methods of use thereof” (Florida Atlantic University Board of Trustees, priority 2018, dated 2020)
